Test results: patent US20240383924A1, “BENZOPYRIMIDINE COMPOUNDS AND USE THEREOF” (priority 2022, published 2024)
Structures can show the parent of a compound that is named as a salt. Where two headings read alike, the source gives them in different places.

Experiments:
KRAS^G12D [1] = target: T1, KRAS^G12D (Homo sapiens (Human), UniProt P01116, G12D); assay: SOS1-mediated binding of KRAS^G12D to effector protein c-Raf (TR-FRET); format: biochemical; conditions: KRAS G12D/c-Raf/SOS1/GTP, read-out: IC50 Values of Compounds for KRAS^G12D Activity
Description: Assay example 1: Assay of SOS1-mediated binding ability of KRAS^G12D to effector protein c-Raf
2. Assay steps 2.1 Preparation of 1×enzymatic reaction buffer:
2.2 Preparation of KRAS G12D enzyme (2×):
2.3 Preparation of substrate and antibody mixture (2×):
1) The compounds were serially diluted 5-fold with DMSO in a dilution plate to a final starting concentration of 10 μM.
2) The compounds were transferred with Echo to a 384 reaction plate with […] per well.
3) 5 μL of KRAS G12D enzyme was added to each well of the reaction plate.
4) The plates were sealed with a sealing film and centrifuged at 1000 g for 30 seconds, and then incubated at room temperature for 15 minutes.
5) 2× cRaf/SOS1/GTP/MAb Anti 6HIS-d2/MAb Anti GST-Eu mixture was prepared with 1× enzyme reaction buffer, and 5 μL of the mixture was added to the reaction plate.
6) The mixture was centrifuged at 1000g for 30 seconds and reacted at room temperature for 2 hours.
7) The fluorescence signals at 615 nm (Cryptate) and 665 nm (XL665) were read with a BMG microplate reader.
8) Data analysis was performed using Graphpad 7.0 software to give IC50.

KRAS^G12D [2] = target: T1, KRAS^G12D; assay: Activity of inhibiting KRAS^G12D: binding of KRAS to GTP (TR-FRET, SOS/GTP exchange); format: biochemical; conditions: Bodipy GDP/SOS/GTP
[3] = tested on: KRAS^G12D mutated AsPC-1 cells; assay: Anti-cell proliferation in tumor cell line AsPC-1 (CellTiter-Glo 3D); format: cell-based; conditions: Homo sapiens, ASPC1; AsPC-1, 120 hours, 3D culture; read-out: Anti-proliferation Activity against KRAS^G12D Mutated AsPC-1 Cells IC50
From the text: Assay example 2. Anti-cell proliferation effects of compounds in tumor cell line AsPC-1 1. Research purpose
In this assay, the inhibitory effects of compounds on cell proliferation were studied by detecting the effects of compounds on the in vitro cell activity in the tumor cell line AsPC-1.
Ultra Low Cluster-96 well plate (Corning-7007)
Greiner CELLSTAR 96-well plate (#655090)
Promega CellTiter-Glo 3D Luminescence Cell Viability Detection Kit (Promega-G9683)
2104-10 En Vision Plate Reader, PerkinElmer
RPMI 1640, DMEM, PBS (phosphate buffered solution), FBS (fetal bovine serum), Antibiotic-antimycotic, L-glutamine, DMSO (dimethyl sulfoxide)
3. Assay methods and steps Cell culture
The tumor cell line was cultured in a 37° C., 5% CO2 incubator according to the culture conditions indicated in the culture method. […]
Cells were stained with trypan blue and viable cells were counted. […]
CellTiter-Glo luminescence assay for cell viability detection (day 5)
The following steps were performed according to the instructions of the Promega CellTiter-Glo 3D Luminescence Cell Viability Dectection Kit (Promega #G9683). […]
The solution in the ULA culture plate was then transferred to a black bottom culture plate (#655090) and left at room temperature for 25 minutes to stabilize the luminescence signal.
Luminescence signals were detected with a 2104 EnVision plate reader. […]

[4] = tested on: phospho-ERK in GP2D cells; assay: Inhibition of phospho-ERK in GP2D cells (Odyssey in-cell imaging); format: cell-based; conditions: Homo sapiens, 1 hour compound, EGF stimulation, read-out: Inhibitory effects on intracellular phospho-ERK IC50
Description: Assay example 3. Inhibitory effect of compounds on phospho-ERK in GP2D cells
In this assay, the inhibitory effect of the assayed compounds on the phosphorylation of ERK protein downstream of the KRAS […] signaling pathway in human colon cancer GP2D cells was analyzed.
2. Reagents, consumables and instruments
3.Assay process 1. Cell culture
1) GP2D cells were cultured in a cell culture 75 flask at 37° C., 5% CO2, and the medium was DMEM medium (added with 10% FBS and 1% P/S).
2) After cultivation for 2 days, the medium was removed and the sterile PBS buffer was used to wash once.
3) 3 mL of trypsin was added and the cells were digested in a 37° C. incubator for 2 to 3 minutes until cells fell off.
4) 9 mL of fresh culture medium was added to neutralize the digestion; the cells were aspirated into a centrifuge tube and centrifuged at 1000 rpm at room temperature for 5 minutes.
5) The supernatant was removed, and 3 mL of fresh culture medium was added to resuspend the cells; the cells were counted by a cell counter.
1) 7000 cells per well were plated in a 384-cell culture plate with 40 μL of culture medium, and cultured overnight in a 37° C. and 5% CO2 incubator.
2) The Echo655 instrument was used to add 40 nL of serially diluted compounds (the initial concentration of the compound was 1000 nM, and the compound was serially diluted 3-fold. […]

[5] = Pharmacokinetic study in vivo in mice; conditions: mouse, plasma, male C57BL/6J mice; for AUC(0-t): read-out: area under plasma concentration-time curve AUC0-last
Description: Male C57BL/6J mice aged 7 to 10 weeks were selected, and administered candidate compound solutions intravenously or orally. Whole blood was collected for a certain period of time. Plasma was prepared. Drug concentration was analyzed by LC-MS/MS method. Pharmacokinetic parameters were calculated using Certara WinNonlin software (Certara Company, USA).

T1 sequence (P01116-2 other isoform, or with tags, fused parts or gaps G12D): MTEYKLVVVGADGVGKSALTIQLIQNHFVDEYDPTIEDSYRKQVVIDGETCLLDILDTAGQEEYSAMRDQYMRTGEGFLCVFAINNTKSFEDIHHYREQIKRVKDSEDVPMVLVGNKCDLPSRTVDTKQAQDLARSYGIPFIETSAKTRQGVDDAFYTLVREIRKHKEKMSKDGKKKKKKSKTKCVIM

C#Cc1c(F)ccc2cc(N)cc(-c3cc(OC)c4c(N5CC6C=CC(C5)N6)nc(OC[C@@]56CCCN5C[C@H](F)C6)nc4c3F)c12 [Compound 006]
IC50 (KRAS^G12D [1]): 37.4 nM

Oc1cc(-c2c(Cl)cc3c(N4C5CCC4CNC5)nc(OC[C@@]45CCCN4C[C@H](F)C5)nc3c2F)c2ccccc2c1 [Compound 029 hydrochloride]
IC50 (KRAS^G12D [2]): 38.6 nM

C#Cc1c(F)ccc2cc(N)cc(-c3ccc4c(N5CC6C=CC(C5)N6)nc(OC[C@@]56CCCN5C[C@H](F)C6)nc4c3F)c12 [Compound 003]
IC50 (KRAS^G12D [1]): 20.4 nM

C#Cc1c(F)ccc2cc(N)cc(-c3c(F)cc4c(N5CC6C=CC(C5)N6)nc(OC[C@]56CCCN5CC(=C)C6)nc4c3F)c12 [Compound 016B]
IC50 [3]: 14.2 nM

C#Cc1c(F)ccc2cc(N)cc(-c3c(F)cc4c(N5CC6C=CC(C5)N6)nc(OC[C@@]56CCCN5C[C@H](F)C6)nc4c3F)c12 [Compound 002A]
IC50 (KRAS^G12D [1]): 23.7 nM
IC50 [3]: 17.7 nM
IC50 [4]: 0.15 nM
Vd ([5]; intravenous administration, dose 1.74-1.94 mg/kg, read-out: apparent volume of distribution Vdss): 56.3 L/kg
AUC(0-t) ([5]; intravenous administration, dose 1.74-1.94 mg/kg): 0.267 µM·h
clearance ([5]; intravenous administration, dose 1.74-1.94 mg/kg, read-out: clearance rate CL): 189 mL/min/kg
half-life ([5]; intravenous administration, dose 1.74-1.94 mg/kg, read-out: half-life T1/2 (converted)): 7.12 h
AUC(0-t) ([5]; oral administration, dose 28.2-51.0 mg/kg): 0.637 µM·h
bioavailability ([5]; oral administration, dose 28.2-51.0 mg/kg, read-out: bioavailability F): 16.1%
Cmax ([5]; oral administration, dose 28.2-51.0 mg/kg, read-out: peak concentration Cmax): 345 nM
Tmax ([5]; oral administration, dose 28.2-51.0 mg/kg, read-out: peak time Tmax): 1.13 h

C#Cc1c(F)ccc2cc(N)cc(-c3c(Cl)cc4c(N5CC6C=CC(C5)N6)nc(OC[C@@]56CCCN5C[C@H](F)C6)nc4c3F)c12 [Compound 001B]
IC50 (KRAS^G12D [1]): 18.9 nM

C#Cc1c(F)ccc2cc(O)cc(-c3ccc4c(N5CC6C=CC(C5)N6)nc(OC[C@@]56CCCN5C[C@H](F)C6)nc4c3F)c12 [Compound 005]
IC50 (KRAS^G12D [1]): 12.3 nM
